Measurements reported in patent US20240316150A1, “METHOD FOR PREVENTION OR TREATMENT OF DISEASES CAUSED BY PATHOGEN-[…] PATTERN” (priority 2021, published 2024).
Where two headings read alike, the source gives them in different places. Ends that are not written are not given here.

Columns and labels:
monocytes [1] = format: cell-based; conditions: Example 26, FIG. 22
occludin = test: Occludin mRNA in ileum (RT-qPCR), carbon tetrachloride plus LPS mice; format: in vivo, BALB/c mice; conditions: LPS 0.3 mg/kg i.p. for 2 weeks
Experimental: The tight junction proteins are essential components of intestinal epithelial cells and the innate immune system. In one experiment, adult male BALB/c mice were intraperitoneally injected with carbon tetrachloride (CC14, 1.0-2.5 ml/kg body weight) for 2 weeks. Then, some mice were given lipopolysaccharides (LPS, 0.3 mg/kg, i.p.) for an additional 2 weeks.

type-1 collagen, α-1 = test: Type-1 collagen mRNA in liver, carbon tetrachloride plus LPS mice; format: in vivo, BALB/c mice; conditions: LPS 0.3 mg/kg i.p. for 2 weeks on carbon tetrachloride injury
Experimental: In one experiment, adult male BALB/c mice were intraperitoneally injected with escalated dosage of carbon tetrachloride (CC14, 1.0-2.5 ml/kg body weight) for 2 weeks. Then, some adult male BALB/c mice were given additional lipopolysaccharides (LPS, 0.3 mg/kg, i.p.) for 2 weeks. At such condition, some mice were supplemented with cholestyramine at 3%w/w in the chow for 4 weeks. […] In normal liver tissues, HSCs are quiescent, featured as storing vitamin A and producing type-4 collagen and other loose extracellular matrix (ECM). The high expression of collagen and the formation of fibrotic septa are common in various liver diseases. […] Endotoxemia is common in various hepatic fibrosis and cirrhosis, caused by alcohol, drugs, viruses (such as HBV and HCV), and immune system disorders. Therefore, the current disclosure can be applied for treatment of various forms of liver fibrosis.

interleukin-1β (IL-1β) = test: IL-1β mRNA in liver, carbon tetrachloride plus LPS mice; format: in vivo, BALB/c mice; conditions: LPS 0.3 mg/kg i.p. for 2 weeks on carbon tetrachloride injury
Experimental: In one experiment, adult male BALB/c mice were intraperitoneally injected with escalated levels of carbon tetrachloride (CC14, 1.0-2.5 ml/kg body weight) for 2 weeks. Then, some mice were given lipopolysaccharides (LPS, 0.3 mg/kg, i.p.) for an additional 2 weeks. Under the condition, some mice were supplemented with cholestyramine at 3 w/w. % in the chow for an additional 4 weeks. […] It is known that PAMPs activate many types of cells to produce interleukin-1 (IL-1), leading to fever, cytokine storms, and tissue damage. In this current disclosure, the cationic polymer in the oral administration can be used for sequestration of intestinal endotoxins, which consequently can alleviate drug-induced liver inflammation, a common mechanism of action for many types of liver injury and fibrogenesis.

[2] = Sirius Red staining of liver, carbon tetrachloride plus LPS mice; format: in vivo, BALB/c mice; conditions: LPS 0.3 mg/kg i.p. for 2 weeks on carbon tetrachloride injury
Experimental: In another experiment, adult male BALB/c mice were injected intraperitoneally with escalated dosage of carbon tetrachloride (CC14 from 1.0 to 2.5 ml/kg body weight) for 2 weeks. And then some mice were given lipopolysaccharides injection (LPS at 0.3 mg/kg, i.p.) for an additional 2 weeks. Under sustained injury conditions, some mice were supplemented with cholestyramine at 3% w/w in the chow for another 4 weeks. […] It is well known that hepatic injury induced activation of hepatic stellate cells (HSCs) mediate hepatic fibrosis.

[3] = test system: α-defensin-5 (DEFA5) produced by Paneth cells; test: α-defensin-5 expression in ileum, carbon tetrachloride plus LPS mice; format: in vivo, BALB/c mice; conditions: LPS 0.3 mg/kg i.p. for 2 weeks
Experimental: In one experiment, adult male BALB/c mice were intraperitoneally injected with escalated dosage of carbon tetrachloride (CC14 from 1.0 to 2.5 ml/kg body weight) for 2 weeks. Then, some mice were given lipopolysaccharides (LPS, 0.3 mg/kg, i.p.) for an additional 2 weeks. […] Lower DEFA5 levels worsen gut microbiota into dysbiosis state, and conversely, increased level of endotoxin may contribute to liver inflammation, leading to tissue injury and fibrogenesis.

monocytes [4] = format: cell-based
Muc-2 = Muc-2 mRNA in ileum (RT-qPCR), carbon tetrachloride plus LPS mice; format: in vivo, BALB/c mice; conditions: LPS 0.3 mg/kg i.p. for 2 weeks
Experimental: In one experiment, adult male BALB/c mice were intraperitoneally injected with escalated dosage of carbon tetrachloride (CC14 from 1.0 to 2.5 ml/kg body weight) for an additional 2 weeks. Then, some mice were given lipopolysaccharides (LPS, 0.3 mg/kg, i.p.) for an additional 2 weeks.

[5] = Bloodstream endotoxin (LAL test), carbon tetrachloride mice given DEFA5; format: in vivo, BALB/c mice; conditions: 10 mg twice a week for 8 weeks, continued carbon tetrachloride
Experimental: In one experiment, adult male BALB/c mice were given intraperitoneal injections of carbon tetrachloride for 4 weeks. While continuing administration of carbon tetrachloride, some mice were given the synthetic human α-defensin-5 (DEFA5) (10 mg, twice a week) for 8 weeks.

[6] = Intestinal permeability by FITC levels in bloodstream, carbon tetrachloride mice; format: in vivo, BALB/c mice; conditions: 10 mg twice a week for 8 weeks, continued carbon tetrachloride
Experimental: In one experiment, adult male BALB/c mice were given intraperitoneal injections of carbon tetrachloride for 4 weeks; while continuing administration of carbon tetrachloride, some mice were given the synthetic human α-defensin-5 (DEFA5) (10 mg, twice a week) for 8 weeks. Finally, the mice were given fluorescein isothiocyanate (FITC). […] Vitamin D deficiency affects the expression of the defensins secreted by Paneth cells, resulting in small intestinal bacterial overgrowth (SIBO) and the translocation of PAMPs into the bloodstream, thereby causing chronic inflammation. Therefore, the defensins, as a therapeutic API, can treat various gastrointestinal disease and alleviate drug-induced liver fibrosis.

gut microbiota = test: Distribution of bacterial microbiota in feces, carbon tetrachloride mice given DEFA5; format: in vivo, BALB/c mice; conditions: 10 mg twice a week for 8 weeks
Experimental: In one experiment, adult male BALB/c mice were given intraperitoneal injections of carbon tetrachloride for 4 weeks; while continuing administration of carbon tetrachloride, some mice were given the synthetic human α-defensin-5 (DEFA5) (10 mg, twice a week) for 8 weeks.

[7] = Sirius Red staining for liver fibrosis, carbon tetrachloride mice given DEFA5; format: in vivo, BALB/c mice; conditions: oral 10 mg twice a week for 8 weeks, continued carbon tetrachloride
From the text: Paneth cells secret innate immune substances, such as antimicrobial peptides, to maintain intestinal homeostasis. The epithelial cells of the small intestine and the innate immune substances maintain the gastrointestinal barrier function, protect against the penetration of commensal and pathogenic bacteria, and safeguard intestinal epithelial cells. The antimicrobial peptides can suppress the small intestinal overgrowth of bacteria (SIBO), a common pathologic condition for many metabolic diseases. In one experiment, adult male BALB/c mice were given intraperitoneal injections of carbon tetrachloride for 4 weeks. While continuing administration of carbon tetrachloride, some mice were orally given synthetic human α-defensin-5 (10 mg, twice a week) for an additional 8 weeks (shown in FIG. 26A). […] The mechanism of action by the DEFA5 as API can be explained in part by inhibiting PAMPs, thereby reducing liver inflammation and damage, which in turn reduces the transdifferentiation of HSC and lowers liver fibrosis score.

Row | Substance | increase of mRNA expression of IL-1B (monocytes [1]) | mRNA expression of occludin gene in ileum tissues (occludin) | drug-induced cirrhosis, type-I collagen mRNA (type-1 collagen, α-1) | drug-induced hepatic inflammation, mRNA expression of IL-1B in the liver (interleukin-1β (IL-1β)) | drug-induced cirrhosis, fibrotic histological analysis (Sirius Red) [2] | expression levels of α-defensin-5 (DEFA5) in ileum tissue [3] | increase of mRNA expression of TNF-α (monocytes [4]; Example 25, FIG. 21) | increase of mRNA expression of TNF-α (monocytes [4]; Example 27, FIG. 23) | mRNA expression of Muc-2 by Goblet cells in ileum tissue (Muc-2) | endotoxin translocation into the bloodstream [5] | intestinal permeability (FITC levels in bloodstream) [6] | balance of intestinal bacterial microbiota (gut microbiota; continued carbon tetrachloride) | abundance of Bacteroidetes (gut microbiota; feces) | abundance of Firmicutes (gut microbiota; feces) | abundance of gamma-Proteobacteria (gut microbiota; feces) | liver fibrosis (Sirius Red) [7]
1 | lipopolysaccharides [LPS] | about 9 times | suppressed the mRNA expression of occludin gene | exacerbates the drug-induced cirrhosis | exacerbates the drug-induced hepatic inflammation | exacerbate the drug-induced cirrhosis | suppressed the expression levels of α-defensin-5 (DEFA5) | about 8 times | about 10 times | reduced the mRNA expression of Muc-2 | – | – | – | – | – | – | –
2 | α-defensin-5 (ATCYCRHGRCATRESLSGVCEISGRLYRLCC; not fully specified (bridges); also: three disulfide bonds) [DEFA5, ATCYCRHGRCATRESLSGVCEISGRLYRLCCR, three disulfide bonds; antimicrobial peptide of Paneth cells] | – | – | – | – | – | – | – | – | – | reduced endotoxin translocation into the bloodstream | reduce intestinal permeability | balanced the intestinal bacterial microbiota | increasing the abundance | reducing the abundance | reducing the abundance | reduced liver fibrosis caused by liver injury
